How the values were obtained:
[1] = test system: Pgp/MDR1; test: Hepatic and intestinal Pgp/MDR1 protein expression (immunoblot); format: in vivo, rats
Procedure: (§1) The animals were categorized into four groups (n = 6) and fasted for 12 h before the experiment. […] orally administered with normal saline for 7 days and Group II was orally administered DAS (25 mg/kg) on the 7th day. Group III was co-administered DAS with APG for 7 days and DAS (25 mg/kg p.o.) on the 7th day, 2 h after APG 40 mg/kg administration, and Group IV was administered with APG 40 mg/kg for 7 days. The blood was collected from the tail vein at various time points after DAS administration and subjected to centrifugation at 5000× g for 10 min to obtain plasma for DAS quantification using ultra pressure liquid chromatography with mass. At the end of the experiment, all animals were euthanized using carbon dioxide, and liver and intestine tissues were harvested and for Western blotting.
(§2) A PierceTM BCA Protein Assay Kit (Thermo Fisher Scientific) was used to extract the total protein from the hepatic and intestinal tissues by bicinchoninic acid technique. Immunoblots were executed as per the methods of Towbin et al. (1979) with slight modification. Briefly, 10% SDS polyacrylamide gels were used to electrophorese 25 μg of hepatic and intestinal epithelial proteins. These proteins were then transferred to activated PVDF membranes and blocked with 4% skim milk and BSA in TBST. After that, membranes were treated with antibodies for CYP3A2 isozymes, active transporters P-glycoprotein/MDR1, BCRP/ABCG2, and β-actin protein expression for an overnight period (4 °C). The membrane strips were incubated with the suitable secondary antibodies for 2 h after repeated washing steps with 1% TBST and TBS (room temperature). The membrane strips were then washed four times with TBST for five minutes each time. Bands were developed using Luminata™ Western Chemiluminescent HRP Substrates (Millipore), followed by densitometric evaluation of the immunoblots.

[2] = test system: BCRP/ABCG2; test: Hepatic and intestinal BCRP/ABCG2 protein expression (immunoblot); format: in vivo, rats
Procedure: as §1, §2

[3] = test system: CYP3A2; test: Hepatic and intestinal CYP3A2 protein expression (immunoblot); format: in vivo, rats
Procedure: as §1, §2

[4] = Pharmacokinetics of oral DAS in rats with or without APG pretreatment (UPLC-MS/MS, non-compartmental); format: in vivo; conditions: DAS in rat plasma, DAS 25 mg/kg p.o., alone or after APG 40 mg/kg p.o. for 7 days, mean ± SD
Procedure: The Central Animal House facility of College of Pharmacy, King Saud University’s, Riyadh, Saudi Arabia, provided 24 healthy adult male Wistar rats (weighing 211–223 g), and the experiment was authorized by the Animal Ethics Committee of the College of Pharmacy, King Saud University (KSU-SE-21-58). All animals were retained in polypropylene cages: 6 animals were caged (n = 6) per cage with a 12-h light/dark cycle, at 25 °C in humane conditions with free access to food and water and adapted to the living conditions one week prior to experiment
as §1
Using UHPLC-MS/MS, DAS concentrations in rat plasma samples were determined. A mixture of DAS and IBR (internal standard) was separated on an Acquity BEH C18 column, and both compounds were eluted at a flow rate of 0.25 mL/min from a mobile phase consisting of acetonitrile, 0.1% formic acid, and 20mM ammonium acetate (95:5). The entire duration of the study was about 2.5 min. The auto-sampler was kept at 10 °C, while the column oven was kept at a constant 40 °C. Electrospray ionization was used to ionize samples in a positive direction. […] Multiple reaction monitoring (MRM) mode detection and quantitation of analyte (DAS) and IS (IBR) employed the precursor to product ion transition of 488.06 and gt; 401.1 and 441.16 and gt; 84.04, respectively. Capillary voltage was 3.4 kV, source temperature was 150 °C, and desolvation temperature was 350 °C for optimum sample ionization using MS/MS. A flow rate of 600 L/h of nitrogen gas was utilized for the desolvation process, whereas a flow rate of 0.18 mL/min of argon gas was used for the collision process. The analyte and IS cone voltages were 46 V and 48 V, and the collision energy was 28 eV and 40 eV, respectively. Precision and accuracy were partially confirmed for the assay using the “US Food and Drug Administration 2018 guideline for bioanalytical technique validation,” and found to be within acceptable ranges of 15% both intra- and inter-day. The samples were acquired using Masslynx 4.1 SCN 805, and then processed using TargetLynks. After making a few modifications to a previously reported study, it was put to use.
A plasma sample of 150 µL was aliquoted into an Eppendorf tube, along with 20 µL of a spiked internal standard (250 ng/mL), and 1 mL of ethyl acetate was also added for the extraction phase. For 10 min at 4 °C and 10,500 rpm, centrifuged samples were shaken for 15 min after being vortexed. Finally, 800 µL of the organic upper layer were transferred to an Eppendorf tube and dried in a sample concentrator at room temperature. Following reconstitution with 150 µL of acetonitrile, the dried residue was transported to UHPLC-MS/MS for 5 µL of analysis.
PK Solver software was employed to calculate the pharmacokinetic parameters using non-compartmental model. The calculated parameters were as follows: half-life (T1/2), elimination rate constant (Kel), time to maximum concentration (Tmax), the maximum concentration (Cmax), area under concentration time curve (AUC), the area under the moment curve (AUMC); the volume of distribution (Vd), the mean residence time (MRT), and clearance (Cl) were examined.

[5] = intestine, APG 40 mg/kg only pretreatment vs normal rats
[6] = liver, APG 40 mg/kg only pretreatment vs normal rats
[7] = intestine, DAS peroral vs normal rats
[8] = liver, DAS peroral vs normal rats

O=c1cc(-c2ccc(O)cc2)oc2cc(O)cc(O)c12 [APG, 4′,5,7-trihydroxyflavone]
inhibition of intestinal Pgp/MDR1 protein expression [1, 5]: 87.84%
inhibition of hepatic Pgp/MDR1 protein expression [1, 6]: 90.67%
inhibition of intestinal BCRP/ABCG2 protein expression [2, 5]: 91.50%
inhibition of hepatic BCRP/ABCG2 protein expression [2, 6]: 91.05%
inhibition of intestinal CYP3A2 protein expression [3, 5]: 90.97%
inhibition of hepatic CYP3A2 protein expression [3, 6]: 87.24%

Cc1nc(Nc2ncc(C(=O)Nc3c(C)cccc3Cl)s2)cc(N2CCN(CCO)CC2)n1 [DAS, Dasatinib]
induction of intestinal Pgp/MDR1 protein expression [1, 7]: 91.65%
induction of hepatic Pgp/MDR1 protein expression [1, 8]: 93.08%
induction of intestinal BCPR/ABCG2 protein expression [2, 7]: 95.66%
induction of hepatic BCPR/ABCG2 protein expression [2, 8]: 92.55%
increase of intestinal CYP3A2 protein expression ([3]; intestine, DAS administered rats vs normal control rats): 79.13%
AUC0-t [4]: 1635.84 ± 45.29 ng·h/mL
AUMC0-inf_obs [4]: 16200.10 ± 1656.57 ng/mL × h^2
Cl [4]: 0.012 ± 0.0005 (mg/kg)/(ng/mL)/h
Cmax [4]: 263.06 ± 12.33 ng/mL
Vd [4]: 0.087 ± 0.005 (mg/kg)/(ng/mL)
Tmax ([4]; male, Wistar, po): 1 h
half-life ([4]; male, Wistar, po): 4.97 ± 0.48 h
k el ([4]; male, Wistar, po): 3.89e-05 s⁻¹
AUC(0-inf) ([4]; male, Wistar, po, read-out: AUC0-inf_obs): 2060 ± 97 ng·h/mL
MRT inf ([4]; male, Wistar, po, read-out: MRT 0-inf_obs): 7.84 ± 0.46 h

Source: publication PMC9964503, “Effects of Apigenin on Pharmacokinetics of Dasatinib and Probable Interaction Mechanism” (Molecules, 2023)
